Assay results: patent publication US6403343B2, “Method of producing a taxane-type diterpene and a method of obtaining cultured cells which produce the taxane-type dilterpene at a high rate” (Mitsui Chemicals, Inc., priority 1993, dated 2002)

Tested on: cultured cells of Taxus baccata LINN
Experiment: Growth rate and taxane yield, 21-day shake culture of Taxus baccata cells with heavy metal compound, amine, antiethylene agent or Ethrel added
Assay type: cell-based
Protocol: (§1) One gram (fresh weight) of the callus was inoculated to an Erlenmeyer flask containing 20 ml of liquid Woody Plant Medium to which the above-mentioned component was added to give the same concentration and shake culture was carried out with a rotary shaker (amplification of 25 mm, 100 rpm) and the callus was subcultured in every 21 days to accelerate the growth rate thereof.
Then shake culture was carried out at 25° C. for 21 days.
(§2) After completing the culture, cultured cells of Taxus baccata LINN were harvested by filtration and lyophilized, then the dry weight was measured to obtain the growth rate thereof. Taxane-type diterpenes were extracted from the dried callus with methanol and the like, and they were determined by comparing with standard taxol, cephalomannine, and baccatin III using high performance liquid chromatography to measure the yields of the taxane-type diterpenes.
as §1
One gram (fresh weight) of the cultured cells thus obtained was inoculated to an Erlenmeyer flask containing 20 ml of liquid Woody Plant Medium to which the above-mentioned component had been added to give the same concentration, then spermidine was added to it as amine to give the final concentration of 10^−9M-1M. Then shake culture was carried out at 25° C. for 21 days.
as §2, with “cells” for “callus”, “diterpene.” for “diterpenes.”
as §1, with “component had been” for “component was”
One gram (fresh weight) of the cultured cells thus obtained was inoculated to an Erlenmeyer flask containing 20 ml of liquid Woody Plant Medium to which the above-mentioned component had been added to give the same concentration, and shake culture was carried out at 25° C. for 14 days.

[1] = Ethrel 10^−3 M added at the start (0 day), no acetylsalicylic acid, oxygen 20%
[2] = Ethrel 10^−3 M added at the start (0 day), no acetylsalicylic acid, oxygen 20%, cell + medium
[3] = Ethrel 10^−3 M added at the 14th day, no acetylsalicylic acid, oxygen 20%
[4] = Ethrel 10^−3 M added at the 14th day, no acetylsalicylic acid, oxygen 20%, cell + medium
[5] = 1 M added on 14th day, 7 more days
[6] = 10^−1 M added on 14th day, 7 more days
[7] = 10^−2 M added on 14th day, 7 more days
[8] = 10^−3 M added on 14th day, 7 more days
[9] = 10^−4 M added on 14th day, 7 more days
[10] = 10^−5 M added on 14th day, 7 more days
[11] = 10^−6 M added on 14th day, 7 more days
[12] = 10^−7 M added on 14th day, 7 more days
[13] = 10^−8 M added on 14th day, 7 more days
[14] = 10^−9 M added on 14th day, 7 more days
[15] = 2×10^−6 M added 5 times at 4 days' intervals from day 0, total 10^−5 M
[16] = 10^−1 M added at start, 21 days
[17] = 10^−2 M added at start, 21 days
[18] = 10^−3 M added at start, 21 days
[19] = 10^−4 M added at start, 21 days
[20] = 10^−5 M added at start, 21 days
[21] = 10^−5 M added on 7th day, 14 more days
[22] = 10^−5 M added on 18th day, 3 more days
[23] = 10^−5 M at start + methyl jasmonate 10^−4 M on 14th day
[24] = 10^−5 M at start + methyl jasmonate 10^−4 M on 14th day, oxygen 10% in the gas phase
[25] = 10^−5 M at start, oxygen 10% in the gas phase
[26] = 10^−6 M added at start, 21 days
[27] = 10^−7 M added at start, 21 days
[28] = 10^−8 M added at start, 21 days
[29] = 10^−9 M added at start, 21 days

With `O=P(O)(O)CCCl` [Reference Example 1] the growth rate [1] was 2.7 times, the “total yield of taxane” value [1] was 0.40 mg/L and the “yield of baccatin III” value [2] was 0.12 mg/L. The yield of cephalomannine [2] was 0.14 mg/L and the yield of taxol [2] was 0.14 mg/L.

`O=P(O)(O)CCCl` [Reference Example 2] was tested, and the growth rate [3] was 2.7 times, the “total yield of taxane” value [3] was 0.30 mg/L and the “yield of baccatin III” value [4] was 0.05 mg/L. It also gave a yield of cephalomannine [4] of 0.16 mg/L and a yield of taxol [4] of 0.09 mg/L.

`Cl.NOCC(=O)O` [aminooxyacetic acid, aminoxyacetic acid hydrochloride] was tested, and the growth rate [5] was 0.9 times, the “total yield of taxane” value [5] was 0 mg/L and the “yield of baccatin III” value [5] was 0 mg/L. It also gave a yield of cephalomannine [5] of 0 mg/L, a yield of taxol [5] of 0 mg/L and a growth rate [6] of 1.2 times. The “total yield of taxane” value [6] was 1.03 mg/L, the “yield of baccatin III” value [6] was 0.33 mg/L and the yield of cephalomannine [6] was 0.26 mg/L. The yield of taxol [6] was 0.44 mg/L, the growth rate [7] was 1.5 times and the “total yield of taxane” value [7] was 1.93 mg/L. For the same compound, the “yield of baccatin III” value [7] was 0.32 mg/L, the yield of cephalomannine [7] was 0.71 mg/L and the yield of taxol [7] was 0.90 mg/L. For the same compound, the growth rate [8] was 1.5 times, the “total yield of taxane” value [8] was 3.43 mg/L and the “yield of baccatin III” value [8] was 1.11 mg/L. The yield of cephalomannine [8] was 0.71 mg/L, the yield of taxol [8] was 1.61 mg/L and the growth rate [9] was 1.7 times. The “total yield of taxane” value [9] was 5.80 mg/L, the “yield of baccatin III” value [9] was 1.92 mg/L and the yield of cephalomannine [9] was 1.22 mg/L. For the same compound, the yield of taxol [9] was 2.66 mg/L, the growth rate [10] was 1.7 times and the “total yield of taxane” value [10] was 3.81 mg/L. For the same compound, the “yield of baccatin III” value [10] was 1.30 mg/L, the yield of cephalomannine [10] was 1.16 mg/L and the yield of taxol [10] was 1.35 mg/L. For the same compound, the growth rate [11] was 1.5 times, the “total yield of taxane” value [11] was 3.00 mg/L and the “yield of baccatin III” value [11] was 1.08 mg/L. It also gave a yield of cephalomannine [11] of 0.73 mg/L, a yield of taxol [11] of 1.19 mg/L and a growth rate [12] of 1.7 times. The “total yield of taxane” value [12] was 2.33 mg/L, the “yield of baccatin III” value [12] was 0.66 mg/L and the yield of cephalomannine [12] was 0.65 mg/L. For the same compound, the yield of taxol [12] was 1.02 mg/L, the growth rate [13] was 1.8 times and the “total yield of taxane” value [13] was 2.00 mg/L. For the same compound, the “yield of baccatin III” value [13] was 0.61 mg/L, the yield of cephalomannine [13] was 0.62 mg/L and the yield of taxol [13] was 0.77 mg/L. The growth rate [14] was 2.3 times, the “total yield of taxane” value [14] was 1.38 mg/L and the “yield of baccatin III” value [14] was 0.21 mg/L. For the same compound, the yield of cephalomannine [14] was 0.58 mg/L and the yield of taxol [14] was 0.59 mg/L.

In the case of `[Cl][Co][Cl]` [cobalt chloride], the growth rate (1 M added at start, 21 days) is reported as 0.6 times, the “total yield of taxane” value (1 M added at start, 21 days) is reported as 0 mg/L and the “yield of baccatin III” value (1 M added at start, 21 days) is reported as 0 mg/L. It also gave a yield of cephalomannine (1 M added at start, 21 days) of 0 mg/L, a yield of taxol (1 M added at start, 21 days) of 0 mg/L and a growth rate [15] of 2.6 times. For the same compound, the “total yield of taxane” value [15] was 27.66 mg/L, the “yield of baccatin III” value [15] was 5.32 mg/L and the yield of cephalomannine [15] was 6.58 mg/L. For the same compound, the yield of taxol [15] was 15.76 mg/L, the growth rate [16] was 0.8 times and the “total yield of taxane” value [16] was 1.08 mg/L. For the same compound, the “yield of baccatin III” value [16] was 0.11 mg/L, the yield of cephalomannine [16] was 0.42 mg/L and the yield of taxol [16] was 0.55 mg/L. For the same compound, the growth rate [17] was 1.4 times, the “total yield of taxane” value [17] was 2.14 mg/L and the “yield of baccatin III” value [17] was 0.44 mg/L. The yield of cephalomannine [17] was 0.78 mg/L, the yield of taxol [17] was 0.92 mg/L and the growth rate [18] was 2.2 times. For the same compound, the “total yield of taxane” value [18] was 7.98 mg/L, the “yield of baccatin III” value [18] was 1.57 mg/L and the yield of cephalomannine [18] was 2.03 mg/L. For the same compound, the yield of taxol [18] was 4.38 mg/L, the growth rate [19] was 2.7 times and the “total yield of taxane” value [19] was 10.02 mg/L. The “yield of baccatin III” value [19] was 1.64 mg/L, the yield of cephalomannine [19] was 3.46 mg/L and the yield of taxol [19] was 4.92 mg/L. For the same compound, the growth rate [20] was 3.2 times, the “total yield of taxane” value [20] was 28.29 mg/L and the “yield of baccatin III” value [20] was 5.68 mg/L. It also gave a yield of cephalomannine [20] of 6.50 mg/L, a yield of taxol [20] of 16.11 mg/L and a growth rate [21] of 3.2 times. The “total yield of taxane” value [21] was 20.56 mg/L, the “yield of baccatin III” value [21] was 4.36 mg/L and the yield of cephalomannine [21] was 5.98 mg/L. The yield of taxol [21] was 10.22 mg/L, the growth rate [10] was 3.1 times and the “total yield of taxane” value [10] was 13.48 mg/L. For the same compound, the “yield of baccatin III” value [10] was 2.01 mg/L, the yield of cephalomannine [10] was 4.37 mg/L and the yield of taxol [10] was 7.10 mg/L. For the same compound, the growth rate [22] was 2.9 times, the “total yield of taxane” value [22] was 3.60 mg/L and the “yield of baccatin III” value [22] was 1.17 mg/L. For the same compound, the yield of cephalomannine [22] was 1.11 mg/L, the yield of taxol [22] was 1.32 mg/L and the growth rate [23] was 2.5 times. The “total yield of taxane” value [23] was 62.78 mg/L, the “yield of baccatin III” value [23] was 23.00 mg/L and the yield of cephalomannine [23] was 9.46 mg/L. For the same compound, the yield of taxol [23] was 30.32 mg/L, the growth rate [24] was 2.4 times and the “total yield of taxane” value [24] was 74.83 mg/L. The “yield of baccatin III” value [24] was 25.85 mg/L, the yield of cephalomannine [24] was 15.21 mg/L and the yield of taxol [24] was 33.77 mg/L. The growth rate [25] was 2.7 times, the “total yield of taxane” value [25] was 52.24 mg/L and the “yield of baccatin III” value [25] was 17.61 mg/L. It also gave a yield of cephalomannine [25] of 7.99 mg/L, a yield of taxol [25] of 26.64 mg/L and a growth rate [26] of 2.4 times. The “total yield of taxane” value [26] was 16.36 mg/L, the “yield of baccatin III” value [26] was 2.25 mg/L and the yield of cephalomannine [26] was 5.79 mg/L. For the same compound, the yield of taxol [26] was 8.32 mg/L, the growth rate [27] was 2.6 times and the “total yield of taxane” value [27] was 1.08 mg/L. The “yield of baccatin III” value [27] was 0.16 mg/L, the yield of cephalomannine [27] was 0.63 mg/L and the yield of taxol [27] was 0.29 mg/L. For the same compound, the growth rate [28] was 2.6 times, the “total yield of taxane” value [28] was 1.05 mg/L and the “yield of baccatin III” value [28] was 0.15 mg/L. The yield of taxol [28] was 0.29 mg/L, the growth rate [29] was 2.5 times and the “total yield of taxane” value [29] was 0.98 mg/L. The “yield of baccatin III” value [29] was 0.15 mg/L, the yield of cephalomannine [29] was 0.56 mg/L and the yield of taxol [29] was 0.27 mg/L.

`C=C` [ethylene] was tested, and the “production of the taxane-type diterpene by the tissues and the cells” value was “greatly inhibits”.
